Molecules are shown by their SMILES.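 These data come from cells grown in 96-well plates and exposed to compound for 48 hours at five concentrations. GI50 marks 50% less growth.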 Active and inactive are the calls of the source. Cut-off read from the data, not from the text of the source: active = GI50 up to about 1.1 µM and inactive = higher. Bounds are passed on as bounds.

Among the test systems are ACHN; HT-29; KM12; LOX IMVI; MOLT-4; NCI-H460; NCI/ADR-RES; OVCAR-3; OVCAR-5; PC-3; RPMI-8226; SF-539; SK-MEL-2; SK-MEL-5; SN12C; SNB-75; SR; U-251; UACC-257; UACC-62.
What all share (assay): NCI tumour cell line growth inhibition, 48 h

Consider `COc1cc2nc3c(=C(C#N)C#N)c4ccccc4n3c(=O)c2cc1OC`, for which the GI50 in the experiment with ACHN, in the experiment on HT-29, with KM12, in the experiment with LOX IMVI, in the experiment on MOLT-4 and in the experiment with NCI-H460 was > 100 µM (inactive) each time. The GI50 with NCI/ADR-RES, in the experiment on OVCAR-3, in the experiment on OVCAR-5, in the experiment with PC-3, in the experiment on RPMI-8226 and in the experiment with SF-539 was > 100 µM (inactive) each time. Also, the GI50 was > 100 µM (inactive) in the experiment on SK-MEL-2; > 100 µM (inactive) with SK-MEL-5; > 100 µM (inactive) in the experiment with SN12C; 41.6 µM (inactive) with SNB-75; > 100 µM (inactive) with SR; > 100 µM (inactive) in the experiment with U-251. Moreover, the GI50 in the experiment with UACC-257 and in the experiment with UACC-62 was > 100 µM (inactive) throughout.

As for `CCO/N=C\c1ccc2oc(-c3ccccc3)cc(=O)c2c1`, the GI50 in the experiment on ACHN was 1.51 µM (inactive); in the experiment with HT-29 it was 0.0521 µM (active); in the experiment with KM12 it was 0.0522 µM (active); in the experiment with LOX IMVI, 1.07 µM (active); in the experiment with MOLT-4 it was 0.121 µM (active); in the experiment on NCI-H460, 0.136 µM (active). Moreover, the GI50 was 0.0501 µM (active) in the experiment with NCI/ADR-RES; 0.0778 µM (active) with OVCAR-3; 2.56 µM (inactive) in the experiment on OVCAR-5; 0.19 µM (active) with PC-3; 0.215 µM (active) with RPMI-8226; 0.168 µM (active) in the experiment with SF-539. For the same molecule, the GI50 in the experiment with SK-MEL-2 is 0.127 µM (active); with SK-MEL-5 it was 0.146 µM (active); in the experiment with SN12C it was 0.303 µM (active); in the experiment on SNB-75 it was 0.219 µM (active); with SR, < 0.0135 µM (active); with U-251 it was 0.628 µM (active). The values for the GI50 in the experiment with UACC-257 and in the experiment on UACC-62 were 18.3 µM (inactive) and 0.194 µM (active), respectively.

With `O=C(/C(=C/c1cccs1)c1ccccc1)c1ccccc1`, the GI50 in the experiment with ACHN is 39.4 µM (inactive); in the experiment with HT-29, 53.2 µM (inactive); with KM12, > 100 µM (inactive); with LOX IMVI, > 100 µM (inactive); in the experiment with MOLT-4 it was 82.4 µM (inactive); in the experiment on NCI-H460, > 100 µM (inactive). Moreover, the GI50 with NCI/ADR-RES was > 100 µM (inactive); with OVCAR-3 it was > 100 µM (inactive); in the experiment on OVCAR-5, > 100 µM (inactive); in the experiment on PC-3, 25.6 µM (inactive); in the experiment with RPMI-8226 it was > 100 µM (inactive); with SF-539, 17.5 µM (inactive). The GI50 is 40.2 µM (inactive) in the experiment on SK-MEL-2; > 100 µM (inactive) in the experiment with SK-MEL-5; 82.2 µM (inactive) with SN12C; 37.7 µM (inactive) in the experiment with SNB-75; 34.3 µM (inactive) in the experiment on SR; 77.1 µM (inactive) in the experiment on U-251. The GI50 with UACC-257 and in the experiment with UACC-62 was > 100 µM (inactive) throughout.

Take `COc1ccc2c(c1)/C(=C\c1c(Cl)n(-c3ccccc3)c3ccccc13)C(=O)N2`: the GI50 is 9.18 µM (inactive) in the experiment with ACHN; 3.48 µM (inactive) with HT-29; 3.18 µM (inactive) in the experiment with KM12; 6.44 µM (inactive) in the experiment with LOX IMVI; 2.23 µM (inactive) in the experiment with MOLT-4; 5.07 µM (inactive) with NCI-H460. Further, the GI50 in the experiment on NCI/ADR-RES is 2.49 µM (inactive); in the experiment with OVCAR-3, 2.25 µM (inactive); in the experiment on OVCAR-5, 12.4 µM (inactive); with PC-3 it was 7.23 µM (inactive); with RPMI-8226, 1.38 µM (inactive); in the experiment on SF-539, 2.98 µM (inactive). The GI50 in the experiment with SK-MEL-2 was 6.73 µM (inactive); in the experiment on SK-MEL-5 it was 4.34 µM (inactive); in the experiment with SN12C it was 13.6 µM (inactive); in the experiment on SNB-75, 6.59 µM (inactive); in the experiment with SR, 2.59 µM (inactive); with U-251 it was 4.19 µM (inactive). The GI50 with UACC-257 is 8.97 µM (inactive); in the experiment on UACC-62, 5.89 µM (inactive).

Turning to `CC(=O)OCC1OC(O[C@@H]2C[C@H]3C(C)(C)[C@H](OC(C)=O)CC[C@]3(C)[C@H]3CC[C@@]45C[C@H](O)C[C@H](C)[C@@H]4CC=C5[C@@]32C)C(O)C(O)C1O` (stereo not given in full), the GI50 in the experiment with ACHN is 6.05 µM (inactive); with HT-29, 1.91 µM (inactive); in the experiment with KM12, 2.38 µM (inactive); with LOX IMVI it was 1.98 µM (inactive); with MOLT-4, 2.32 µM (inactive); in the experiment with NCI-H460 it was 3.26 µM (inactive). Moreover, the GI50 was 16 µM (inactive) in the experiment on NCI/ADR-RES; 3.75 µM (inactive) in the experiment on OVCAR-3; 2.18 µM (inactive) in the experiment on OVCAR-5; 3.03 µM (inactive) in the experiment with PC-3; 2.42 µM (inactive) with RPMI-8226; 6.59 µM (inactive) with SF-539. In addition, the GI50 in the experiment with SK-MEL-2 was 2.33 µM (inactive); in the experiment with SK-MEL-5 it was 3.24 µM (inactive); in the experiment with SN12C, 4.08 µM (inactive); in the experiment with SNB-75, 3.16 µM (inactive); in the experiment on SR, 2.07 µM (inactive); in the experiment on U-251, 3.04 µM (inactive). Moreover, the GI50 is 4.72 µM (inactive) in the experiment with UACC-257 and 4.12 µM (inactive) with UACC-62.

`c1ccc2cc(CNCCCCNCCCNCc3ccc4ccccc4c3)ccc2c1`: the GI50 in the experiment with ACHN is 1.42 µM (inactive); in the experiment on HT-29 it was 0.229 µM (active); in the experiment with KM12, 0.403 µM (active); in the experiment on LOX IMVI, 0.202 µM (active); with MOLT-4 it was 0.256 µM (active); in the experiment on NCI-H460 it was 0.188 µM (active). For the same molecule, the GI50 with NCI/ADR-RES is 1.68 µM (inactive); with OVCAR-3 it was 1.6 µM (inactive); in the experiment on OVCAR-5, 1.87 µM (inactive); in the experiment with PC-3, 1.63 µM (inactive); in the experiment with RPMI-8226 it was 0.226 µM (active); with SF-539, 1.69 µM (inactive). In addition, the GI50 in the experiment with SK-MEL-2 is 2.07 µM (inactive); with SK-MEL-5, 2.4 µM (inactive); in the experiment on SN12C, 0.733 µM (active); in the experiment on SNB-75 it was 1.5 µM (inactive); in the experiment on SR, 0.351 µM (active); in the experiment with U-251, 0.564 µM (active). Moreover, the GI50 is 1.88 µM (inactive) in the experiment on UACC-257 and 1.75 µM (inactive) with UACC-62.

As to `Cc1ccc(O)c(-c2csc(NCN3CCN(CNc4nc(-c5cc(C)ccc5O)cs4)CC3)n2)c1`, the GI50 is > 100 µM (inactive) in the experiment on ACHN; > 100 µM (inactive) in the experiment on HT-29; > 100 µM (inactive) in the experiment with KM12; > 100 µM (inactive) in the experiment with LOX IMVI; 15.2 µM (inactive) in the experiment with MOLT-4; > 100 µM (inactive) with NCI-H460. In addition, the GI50 in the experiment with NCI/ADR-RES is > 100 µM (inactive); in the experiment with OVCAR-3, > 100 µM (inactive); with OVCAR-5, > 100 µM (inactive); in the experiment with PC-3, > 100 µM (inactive); in the experiment with RPMI-8226, 25.2 µM (inactive); with SF-539 it was > 100 µM (inactive). In addition, the GI50 with SK-MEL-2, with SK-MEL-5, in the experiment with SN12C, with SNB-75, in the experiment on SR and in the experiment on U-251 was > 100 µM (inactive) in each case. Moreover, the GI50 in the experiment with UACC-257 and in the experiment with UACC-62 was > 100 µM (inactive) throughout.

`O=C1/C(=C/c2ccc([N+](=O)[O-])cc2)C(=O)N(c2ccccc2)C1c1ccccc1` (stereo not given): the GI50 in the experiment with ACHN, with HT-29, in the experiment on KM12, in the experiment with LOX IMVI, in the experiment on MOLT-4 and in the experiment on NCI-H460 was > 10 µM (inactive) in each case. Further, the GI50 with NCI/ADR-RES, in the experiment with OVCAR-3, with OVCAR-5, in the experiment on PC-3, with RPMI-8226 and in the experiment on SF-539 was > 10 µM (inactive) throughout. Moreover, the GI50 in the experiment with SK-MEL-2, in the experiment on SK-MEL-5, in the experiment on SN12C, with SNB-75, in the experiment on SR and in the experiment on U-251 was > 10 µM (inactive) each time. In addition, the GI50 with UACC-257 and in the experiment on UACC-62 was > 10 µM (inactive) in each case.

As for `O=C1C(N2CCOCC2)=C(Cl)C(=O)c2ncccc21`, the GI50 in the experiment with ACHN is 1.85 µM (inactive); in the experiment with HT-29, > 7.89 µM (inactive); with KM12, > 3.84 µM (inactive); in the experiment on LOX IMVI, 1.94 µM (inactive); in the experiment on MOLT-4, 0.443 µM (active); in the experiment on NCI-H460, > 6.79 µM (inactive). For the same molecule, the GI50 with NCI/ADR-RES is 8.49 µM (inactive); with OVCAR-3, 1.81 µM (inactive); in the experiment with OVCAR-5 it was > 10 µM (inactive); in the experiment on PC-3, > 9.62 µM (inactive); with RPMI-8226, 1.56 µM (inactive); in the experiment with SF-539, 4.89 µM (inactive). The GI50 in the experiment on SK-MEL-2 is 1.87 µM (inactive); in the experiment with SK-MEL-5, 1.82 µM (inactive); with SN12C, 1.75 µM (inactive); in the experiment on SNB-75 it was > 10 µM (inactive); in the experiment on SR it was 0.778 µM (active); with U-251 it was 5.71 µM (inactive). For the same molecule, the GI50 is 1.73 µM (inactive) in the experiment on UACC-257 and 2.33 µM (inactive) with UACC-62.

As for `COc1ccc(C(C)NNC(=O)c2ccncc2)c(OC)c1` (stereo not given), the GI50 with ACHN, in the experiment on HT-29, with KM12, in the experiment on LOX IMVI, with MOLT-4 and with NCI-H460 was > 100 µM (inactive) throughout. The GI50 with NCI/ADR-RES, in the experiment with OVCAR-3, with OVCAR-5, in the experiment on PC-3, in the experiment on RPMI-8226 and in the experiment on SF-539 was > 100 µM (inactive) in each case. Further, the GI50 in the experiment with SK-MEL-2, in the experiment with SK-MEL-5, with SN12C, in the experiment on SNB-75, in the experiment on SR and with U-251 was > 100 µM (inactive) throughout. Besides, the GI50 in the experiment with UACC-257 and in the experiment with UACC-62 was > 100 µM (inactive) in each case.

Source of the values: ChEMBL document CHEMBL1201862, “PubChem BioAssay data set” (2004).
